Source: USRE49556E1, “Compounds and compositions as protein kinase inhibitors” (Array BioPharma Inc., priority 2009, dated 2023)

Key:
[1] = Liver microsomal clearance assay, human; format: in vitro ADME; conditions: extraction ratio, human liver microsomes, 1 μM compound
Description: (§1) Liver Microsomal Clearance Assay
(§2) The in vitro microsomal clearance assay is designed to assess potential risks associated with hepatic metabolic stability of compounds. The test compound (1 μM) was incubated with liver microsomes (0.5 mg/mL) from different species (mouse, rat, monkey, dog and human) and NADPH (1 mM) in 100 mM potassium phosphate buffer at 37° C. At specific reaction time points (0, 5, 10 and 30 minutes), reaction aliquots were removed and reactions were terminated by addition of ice cold acetonitrile containing mass spectrometry internal standard. The samples were centrifuged and the supernatants were analyzed by LC-MS/MS. In vitro metabolic half-life (t1/2, min) and intrinsic clearance (CLint, μL/min/mg) are based on the rate and extent of metabolism of the test compound as determined by the disappearance of the parent compound from the reaction mixture. These values may be scaled to predict hepatic metabolic clearance rate (CLh, mL/min/kg) and extraction ratio (ER, expressed as a ratio of the predicted hepatic metabolic clearance to hepatic blood flow in that species). In general, compounds with high predictedCLint or ER in vitro are considered to be at high risk for exposure-limiting metabolism in vivo.

A375 cells = assay: A375 Cellular Proliferation Assay (A375 CP); format: cell-based; conditions: A375-luc cells, 2 days
Description: A375-luc cells engineered to express luciferase are plated to 384-well white clear bottom plates as 1,500 cells/50 μl/well in DMEM containing 10% FBS. Compounds of the invention dissolved in 100% DMSO at appropriate concentrations are transferred to the cells by a robotic Pin Tool (100 nl). The cells are incubated for 2 days at […], then 25 μl of BrightGlo™ is added to each well and the plates are read by luminescence. The concentration of each compound for 50% inhibition (IC50) was calculated by non-linear regression using XL Fit data analysis software.

[2] = Liver microsomal clearance assay, mouse; format: in vitro ADME; conditions: extraction ratio, mouse liver microsomes, 1 μM compound
Description: as §1, §2

[3] = In vivo pharmacokinetics assay in mouse
Description: (§3) Full pharmacokinetics study: Male Balb/c mice (n=3, body weights 22-25 g) or male Wistar rats (n=3, body weights 250-300 g) were administered the test compound intravenously via the lateral tail vein or orally via gavage. […] Six blood samples of 50 μL each were collected serially for 24 h after dosing. The blood samples were centrifuged to separate the plasma. Plasma samples were analyzed and quantified by LC-MS/MS.
as §3, with “Rapid” for “Full”, “intravenously (IV)” for “intravenously”, “orally (PO)” for “orally”, “Blood” for “The blood”, “and plasma separated and pooled across” for “to separate”, “three animals at each time point per dose route.” for “plasma.”
For both full and rapid pharmacokinetics studies, the following parameters were calculated by non-compartmental regression analysis using Winnonlin 5.0 software (Pharsight, Mountain View, Calif., USA): plasma clearance (Cl), plasma maximum concentration (Cmax), plasma area-under-the-concentration-time-curve (AUC0-inf) and percent oral bioavailability (F %).

SW620 cells = assay: SW620 cell viability assay (Cell Titer Glo); format: cell-based; conditions: 9 serial dilutions between 10 and 0.002 μM, without MEK inhibitor
Description: The present invention also includes combinations of the BRaf inhibitors disclosed in this invention with other agents. In particular, the present invention provides for combinations with MEK1/2 inhibitors. FIG. 1 illustrates that the addition of a MEK small molecule inhibitor can reverse the induced ERK signaling, cell growth and transformation caused by a Raf small molecule inhibitor.
SW620 cells were seeded in 1640 RPMI+10% FBS at a density of 1500 cells per 96-well in black walled, clear bottom tissue culture treated plates. Test compounds were serially diluted in DMSO then added to the cells (final DMSO concentration of 0.1%) and incubated at 37° C. and 5% CO2 for 4 days. To measure cell viability, cell plates were brought to room temperature, culture media was removed, and 200 µl of Cell Titer-Glo reagent (Promega, kit components mixed as per the manufacturer's protocol then diluted 1:2 with growth media) was added to each well. Plates were shaken for 5 minutes, then incubated at room temperature for 5 minutes, and the luminescence was measured (Trilux, Perkin Elmer).

Row | Molecule | ER Human [1] | IC50 (A375 cells) | ER Mouse [2] | Cmax ([3]; PO 5 mg/kg, n = 1) | PO AUC ([3]; PO 5 mg/kg, n = 1) | F ([3]; PO/IV 5/2 mg/kg, n = 1) | Cl ([3]; plasma clearance, IV 2 mg/kg) | cellular proliferation (Cell Titer Glo, FIG. 1) (SW620 cells)
1 | methyl N-[(2S)-1-[(4-{3-[2-fluoro-3-(propane-1-sulfonamido)phenyl]-1-(propan-2-yl)-1H-pyrazol-4-yl}pyrimidin-2-yl)amino]propan-2-yl]carbamate [Compound 3] | 0.69 | 2 nM | 0.85 | 70 nM | 0.20 (n = 1) hrs*μM | 6 (n = 1) % | 51 (n = 1) mL/min/kg | –
2 | COC(=O)N[C@@H](C)CNc1nccc(-c2cn(C(C)C)nc2-c2cc(Cl)cc(NS(C)(=O)=O)c2F)n1 [Compound 9, Methyl N-[(2S)-1-({4-[3-(5-chloro-2-fluoro-3-methanesulfonamidophenyl)-1-(propan-2-yl)-1H-pyrazol-4-yl]pyrimidin-2-yl}amino)propan-2-yl]carbamate] | – | – | – | – | – | – | – | induction in cellular proliferation
